The record followed here is ChEMBL document CHEMBL5036317, “Identification of Unique Quinazolone Thiazoles as Novel Structural Scaffolds for Potential Gram-Negative Bacterial Conquerors” (J Med Chem, 2021).

≈ marks a conversion by molar mass, not a printed value. Calls of active or inactive are those of the source. The rule behind the calls is not given here. Where only a bound is given, the exact number is not on record here.

Data set [1] has as its system Pseudomonas aeruginosa. Kind of data set: Antibacterial activity against Pseudomonas aeruginosa ATCC 27853 assessed as inhibition of bacterial growth measured after 24 hrs by two-fold serial dilution method. Format: functional.
Data set [2] concerns Escherichia coli. Kind of data set: Antibacterial activity against Escherichia coli assessed as inhibition of bacterial growth measured after 24 hrs by two-fold serial dilution method. Format: functional.
For data set [3], the system named is Staphylococcus aureus. Kind of data set: Antibacterial activity against methicillin-resistant Staphylococcus aureus assessed as inhibition of bacterial growth measured after 24 hrs by two-fold serial dilution method. It is filed as functional.
Data set [4] deals with Pseudomonas aeruginosa. Kind of data set: Antibacterial activity against Pseudomonas aeruginosa assessed as inhibition of bacterial growth measured after 24 hrs by two-fold serial dilution method. It is filed as functional.
Data set [5] relates to Staphylococcus aureus. Kind of data set: Antibacterial activity against Staphylococcus aureus ATCC 25923 assessed as inhibition of bacterial growth measured after 24 hrs by two-fold serial dilution method. Format: functional.
The test system of a further data set is Acinetobacter baumannii. Kind of data set: Antibacterial activity against Acinetobacter baumanii assessed as inhibition of bacterial growth measured after 24 hrs by two-fold serial dilution method. It is filed as functional.
Data set [6] relates to Staphylococcus aureus. Kind of data set: Antibacterial activity against Staphylococcus aureus ATCC 29213 assessed as inhibition of bacterial growth measured after 24 hrs by two-fold serial dilution method. It is filed as functional.
In data set [7] the test system is Staphylococcus aureus. Nature of the data set: Antibacterial activity against Staphylococcus aureus assessed as inhibition of bacterial growth measured after 24 hrs by two-fold serial dilution method. Format: functional.
The test system of another data set is Klebsiella pneumoniae. Kind of data set: Antibacterial activity against Klebsiella pneumoniae assessed as inhibition of bacterial growth measured after 24 hrs by two-fold serial dilution method. It is filed as functional.
A short description of data set [8]: Haemolytic activity in human erythrocytes incubated for 2 hrs. It is filed as ADME, cell-based, Erythrocyte.
In the next data set the test system is Enterococcus faecalis. Kind of data set: Antibacterial activity against Enterococcus faecalis assessed as inhibition of bacterial growth measured after 24 hrs by two-fold serial dilution method. It is filed as functional.
Data set [9] has as its system Escherichia coli. Nature of the data set: Antibacterial activity against Escherichia coli ATCC 25922 assessed as inhibition of bacterial growth measured after 24 hrs by two-fold serial dilution method. It is filed as functional.
Data set [10] has as its system Pseudomonas aeruginosa. Nature of the data set: Antibacterial activity against Pseudomonas aeruginosa assessed as reduction in metabolic activity at 1 to 6 times MIC measured after 6 hrs by alamar blue assay. Format: functional, organism-based. A general note: The colour change of resazurin is a common sign of viable cells or microbes.
For data set [11], the system named is Escherichia coli. Nature of the data set: Antibacterial activity against Escherichia coli assessed as drug resistance treated for 16 serial passages and measured every 24 hrs. It is filed as functional, organism-based.
Data set [12] relates to Cell membrane. Kind of data set: Induction of cytoplasmic membrane depolarization in Pseudomonas aeruginosa assessed as increase in fluorescence intensity at 0 to 6 times MIC by DiSC3-5 dye based fluorescence assay. It is filed as subcellular.
Data set [13] deals with Pseudomonas aeruginosa. Nature of the data set: Induction of ROS generation in Pseudomonas aeruginosa measured after 6 hrs by DCFH-DA staining based assay. It is filed as functional, organism-based.
Data set [14] concerns Escherichia coli. Kind of data set: Antibacterial activity against Escherichia coli assessed as reduction in metabolic activity at 1 to 6 times MIC measured after 6 hrs by alamar blue assay. Format: functional, organism-based.
Data set [15] concerns Cell membrane. Nature of the data set: Induction of cell membrane disruption in Pseudomonas aeruginosa assessed as reduction in LDH activity at 1 to 4 times MIC measured after 6 hrs. Format: subcellular.
Data set [16] deals with Cell membrane. Nature of the data set: Induction of outer membrane permeabilization in Escherichia coli assessed as increase in NPN uptake by measuring increase in fluorescence intensity incubated for 5 mins by NPN-dye based fluorescence analysis.
For data set [17], the system named is Cell membrane. Nature of the data set: Induction of cell membrane disruption in Pseudomonas aeruginosa assessed as increase in protein leakage at 1 to 6 times MIC measured after 6 hrs by Bradford assay.
Data set [18] has as its system Escherichia coli. Nature of the data set: Induction of ROS generation in Escherichia coli measured after 6 hrs by DCFH-DA staining based assay. Format: functional, organism-based.
The test system of data set [19] is Pseudomonas aeruginosa. Nature of the data set: Antibacterial activity against Pseudomonas aeruginosa assessed as drug resistance treated for 16 serial passages and measured every 24 hrs. It is filed as functional, organism-based.
The test system of data set [20] is Cell membrane. Kind of data set: Induction of outer membrane permeabilization in Pseudomonas aeruginosa assessed as increase in NPN uptake by measuring increase in fluorescence intensity incubated for 5 mins by NPN-dye based fluorescence analysis.
Data set [21] deals with Cell membrane. Kind of data set: Induction of cell membrane disruption in Escherichia coli assessed as increase in protein leakage at 1 to 6 times MIC measured after 6 hrs by Bradford assay.
Data set [22] has as its system Pseudomonas aeruginosa. Kind of data set: Antibiofilm activity against Pseudomonas aeruginosa assessed as reduction in biofilm biomass at 0 to 6 times MIC measured after 24 hrs by crystal violet staining based assay. It is filed as functional, organism-based.
The subject of data set [23] is Calf thymus DNA. Kind of data set: Binding affinity to calf thymus DNA assessed as assessed as compound-DNA complex formation by measuring hypochromic shift by UV-visible absorption spectrophotometric method. It is filed as tissue-based. The settings on record: Bos taurus.
Data set [24] concerns Cell membrane. Nature of the data set: Induction of inner membrane permeabilization in Escherichia coli assessed as increase in PI uptake by measuring increase in fluorescence intensity incubated for 30 mins by propidium iodide staining based fluorescence analysis.
For data set [25], the system named is Cell membrane. Nature of the data set: Induction of cytoplasmic membrane depolarization in Escherichia coli assessed as increase in fluorescence intensity at 0 to 6 times MIC by DiSC3-5 dye based fluorescence assay. It is filed as subcellular.
The test system of data set [26] is Escherichia coli. Nature of the data set: Antibiofilm activity against Escherichia coli assessed as reduction in biofilm biomass at 0 to 6 times MIC measured after 24 hrs by crystal violet staining based assay. Format: functional, organism-based.
For data set [27], the system named is Cell membrane. Nature of the data set: Induction of inner membrane permeabilization in Pseudomonas aeruginosa assessed as increase in PI uptake by measuring increase in fluorescence intensity incubated for 30 mins by propidium iodide staining based fluorescence analysis.
Data set [28] deals with Cell membrane. Nature of the data set: Induction of cell membrane disruption in Escherichia coli assessed as reduction in LDH activity at 1 to 4 times MIC measured after 6 hrs. Format: subcellular.
Data set [29] deals with Calf thymus DNA. Kind of data set: Binding affinity to calf thymus DNA assessed as reduction in acridine orange-DNA complex formation by competitive binding assay. The settings on record: Bos taurus.

One may read the MIC as the least concentration at which growth counts as inhibited. A word on the HC50: it is the concentration that lyses half of the red blood cells. A high value points to less damage to red cells. As to `O=C(/C(=C/c1nccs1)n1cnc2cc(Cl)ccc2c1=O)c1nccs1`, the MIC turned out to be 4 µg/mL (≈ 9.98 µM) with Pseudomonas aeruginosa [1]; 16 µg/mL (≈ 39.9 µM) in the data set with Escherichia coli [2]; 4 µg/mL (≈ 9.98 µM) in the data set with Staphylococcus aureus [3]; 16 µg/mL (≈ 39.9 µM) in the data set with Pseudomonas aeruginosa [4]; 2 µg/mL (≈ 4.99 µM) with Staphylococcus aureus [5]; 16 µg/mL (≈ 39.9 µM) in the data set on Acinetobacter baumannii. In addition, the MIC is 2 µg/mL (≈ 4.99 µM) in the data set on Staphylococcus aureus [6]; 2 µg/mL (≈ 4.99 µM) in the data set with Staphylococcus aureus [7]; 4 µg/mL (≈ 9.98 µM) with Klebsiella pneumoniae; 1 µg/mL (≈ 2.49 µM) with Enterococcus faecalis; 4 µg/mL (≈ 9.98 µM) in the data set on Escherichia coli [9]. This compound also returned a concentration for 50% haemolysis (HC50) at 2 h in [8] of 115 µg/mL.

Consider `O=C(/C(=C/c1ccc([N+](=O)[O-])cc1)n1cnc2cc(Cl)ccc2c1=O)c1nccs1`, for which the MIC was 4 µg/mL (≈ 9.11 µM) in the data set with Pseudomonas aeruginosa [1]; 64 µg/mL (≈ 146 µM) in the data set on Escherichia coli [2]; 8 µg/mL (≈ 18.2 µM) in the data set with Staphylococcus aureus [3]; 4 µg/mL (≈ 9.11 µM) in the data set on Pseudomonas aeruginosa [4]; 4 µg/mL (≈ 9.11 µM) in the data set with Staphylococcus aureus [5]; 4 µg/mL (≈ 9.11 µM) in the data set with Acinetobacter baumannii. Further, the minimum inhibitory concentration (MIC) in the data set on Staphylococcus aureus [6] is 2 µg/mL (≈ 4.56 µM); in the data set on Staphylococcus aureus [7] it was 2 µg/mL (≈ 4.56 µM); in the data set on Klebsiella pneumoniae, 16 µg/mL (≈ 36.5 µM); with Enterococcus faecalis, 2 µg/mL (≈ 4.56 µM); with Escherichia coli [9] it was 2 µg/mL (≈ 4.56 µM). In addition, the HC50 at 2 h in [8] is > 250 µg/mL.

In the case of `O=C(/C(=C/c1ccc(C(F)(F)F)cc1)n1cnc2c(Cl)cc(Cl)cc2c1=O)c1nccs1`, the MIC is 1 µg/mL (≈ 2.01 µM) in the data set on Pseudomonas aeruginosa [1]; 4 µg/mL (≈ 8.06 µM) in the data set on Escherichia coli [2]; 4 µg/mL (≈ 8.06 µM) in the data set with Staphylococcus aureus [3]; 8 µg/mL (≈ 16.1 µM) in the data set on Pseudomonas aeruginosa [4]; 8 µg/mL (≈ 16.1 µM) with Staphylococcus aureus [5]; 1 µg/mL (≈ 2.01 µM) in the data set with Acinetobacter baumannii. Further, the minimal inhibitory concentration (MIC) stood at 8 µg/mL (≈ 16.1 µM) in the data set on Staphylococcus aureus [6]; 128 µg/mL (≈ 258 µM) in the data set with Staphylococcus aureus [7]; 1 µg/mL (≈ 2.01 µM) with Klebsiella pneumoniae; 64 µg/mL (≈ 129 µM) in the data set with Enterococcus faecalis; 4 µg/mL (≈ 8.06 µM) in the data set on Escherichia coli [9]. Also, the HC50 at 2 h in data set [8] is > 250 µg/mL.

On to `O=C(/C(=C/c1c[nH]c2cc(Cl)ccc12)n1cnc2cc(Cl)ccc2c1=O)c1nccs1`, for which the MIC with Pseudomonas aeruginosa [1] is 64 µg/mL (≈ 137 µM); in the data set with Escherichia coli [2] it was 64 µg/mL (≈ 137 µM); in the data set with Staphylococcus aureus [3], 32 µg/mL (≈ 68.5 µM); in the data set with Pseudomonas aeruginosa [4], 256 µg/mL (≈ 548 µM); in the data set with Staphylococcus aureus [5] it was 2 µg/mL (≈ 4.28 µM); in the data set on Acinetobacter baumannii it was 512 µg/mL (≈ 1100 µM). The MIC amounted to 2 µg/mL (≈ 4.28 µM) in the data set on Staphylococcus aureus [6]; 512 µg/mL (≈ 1100 µM) with Staphylococcus aureus [7]; 64 µg/mL (≈ 137 µM) with Klebsiella pneumoniae; 2 µg/mL (≈ 4.28 µM) with Enterococcus faecalis; 2 µg/mL (≈ 4.28 µM) with Escherichia coli [9]. For the same compound, in [8], the HC50 at 2 h is > 250 µg/mL.

Take `O=C(/C(=C/c1ccc(Cl)cc1)n1cnc2cc(Cl)ccc2c1=O)c1nccs1`: the MIC is 1 µg/mL (≈ 2.33 µM) in the data set with Pseudomonas aeruginosa [1]; 16 µg/mL (≈ 37.4 µM) with Escherichia coli [2]; 8 µg/mL (≈ 18.7 µM) in the data set on Staphylococcus aureus [3]; 2 µg/mL (≈ 4.67 µM) in the data set on Pseudomonas aeruginosa [4]; 4 µg/mL (≈ 9.34 µM) in the data set on Staphylococcus aureus [5]; 256 µg/mL (≈ 598 µM) with Acinetobacter baumannii. The MIC stood at 4 µg/mL (≈ 9.34 µM) in the data set on Staphylococcus aureus [6]; 16 µg/mL (≈ 37.4 µM) in the data set with Staphylococcus aureus [7]; 64 µg/mL (≈ 149 µM) with Klebsiella pneumoniae; 4 µg/mL (≈ 9.34 µM) in the data set on Enterococcus faecalis; 2 µg/mL (≈ 4.67 µM) in the data set on Escherichia coli [9]. In addition, the HC50 at 2 h in [8] was > 250 µg/mL.

On to `O=C(/C(=C/c1ccc(C(F)(F)F)cc1)n1cnc2cc(Cl)ccc2c1=O)c1nccs1`, for which the result with Pseudomonas aeruginosa [10], in the data set with Cell membrane [12], in the data set on Escherichia coli [14], with Cell membrane [15], in the data set with Cell membrane [17] and in the data set with Cell membrane [21] was Active. The result with Pseudomonas aeruginosa [22], in the data set on Calf thymus DNA [23], with Cell membrane [25], in the data set with Escherichia coli [26], in the data set on Cell membrane [28] and in the data set on Calf thymus DNA [29] was Active. Moreover, the outcome in the data set on Escherichia coli [11] and in the data set with Pseudomonas aeruginosa [19] was inactive. The Activity entry with Pseudomonas aeruginosa [13], with Cell membrane [16], in the data set on Escherichia coli [18], in the data set with Cell membrane [20], with Cell membrane [24] and with Cell membrane [27] was “Dose-Dependent Effect” each time. The MIC with Pseudomonas aeruginosa [1] came to 1 µg/mL (≈ 2.17 µM); with Escherichia coli [2] it was 1 µg/mL (≈ 2.17 µM); in the data set on Staphylococcus aureus [3], 4 µg/mL (≈ 8.66 µM); with Pseudomonas aeruginosa [4], 1 µg/mL (≈ 2.17 µM); in the data set on Staphylococcus aureus [5], 2 µg/mL (≈ 4.33 µM); in the data set on Acinetobacter baumannii, 8 µg/mL (≈ 17.3 µM). Besides, the MIC is 1 µg/mL (≈ 2.17 µM) in the data set with Staphylococcus aureus [6]; 32 µg/mL (≈ 69.3 µM) in the data set on Staphylococcus aureus [7]; 1 µg/mL (≈ 2.17 µM) in the data set on Klebsiella pneumoniae; 2 µg/mL (≈ 4.33 µM) in the data set with Enterococcus faecalis; 2 µg/mL (≈ 4.33 µM) in the data set with Escherichia coli [9]. Also, in data set [8], the concentration for 50% haemolysis (HC50) at 2 h was > 250 µg/mL.
